Values quoted from earlier work, collected in US20210196621A1, “ALCOHOL-FREE BOTANICAL ORAL CARE PRODUCTS” (The Trustees of Columbia University in the City of New York, priority 2018, published 2021).

Tests used:
[1] = oral rinses, WO 2014/092999

| Compound | Synergism with botanical blend absent pomegranate extract (absent pomegranate extract) | Synergism with botanical blends containing pomegranate extract (blends containing pomegranate extract) | Synergistic activity with thymol and vanilla extract [1] |
| --- | --- | --- | --- |
| [H]/N=C(\N/C(=N/[H])NCCCCCCNC(=N)NC(=N)Nc1ccc(Cl)cc1)Nc1ccc(Cl)cc1 [chlorhexidine] | did not show significant synergism | synergistically enhanced the antibacterial activity | did not |
| PHMB |  |  | showed synergistic activity |
